The nature of data set [1]: Anticonvulsant activity (AcA), method of Zobrist et al. As to conditions: scale from 0 to 5. Also noted: key: 0 being no observed activity; 5 being the most active. In kind it is in vivo. On the procedure:
Anticonvulsant activity (AcA) was determined generally by the method of Zobrist et al., European Patent Application EP.... (our ref.: A 634 EP) entitled, "BENZOTHZAZEPINE ANTI-SEIZURE METHOD," and filed on even date herewith; see also US-A-4,879,289.

Data set [2] is described as follows: Anti-depressant activity (AdA), visual observation. As to conditions: scale from 0 to 5. In kind it is in vivo. On the procedure:
Anti-depressant activity (AdA) was determined by visual observation.

The nature of data set [3]: Cardiovascular activity (CvA), isolated tissue. As to conditions: scale from 0 to 5. On the procedure:
Cardovascular activity (CvA) was determined by the use of isolated tissue.

Data set [4] concerns VCR-resistant cell line. As to conditions: nontoxic concentration of diltiazem hydrochloride; cited from earlier work.

Where a name gives a salt, the structure may show the parent alone.

As to `COc1ccc([C@@H]2Sc3ccccc3N(CCN(C)C)C(=O)[C@@H]2OC(C)=O)cc1` [Diltiazem, d-cis-5-[2-(dimethylamino)ethyl]-2,3-dihydro-3-hydroxy-2-(4-methoxyphenyl)-1,5-benzothiazepin-4(5H)-one acetate (ester), reference compound], the AcA in data set [1] turned out to be 5. The AdA in data set [2] turned out to be 2.

For `CCCCC(=O)O[C@H]1C(=O)N(CCN(C)C)c2ccccc2S[C@H]1c1ccc(OC)cc1.O=C(O)/C=C/C(=O)O` [d-cis-ML1013], in data set [1], the AcA came to 0. The molecule also registered a CvA in data set [3] of 1.

For the molecule `COc1ccc([C@@H]2Sc3ccccc3N(CCN(C)C)C(=O)[C@@H]2OC(=O)CC(C)C)cc1.O=C(O)/C=C/C(=O)O` [d-cis-ML1014], the AcA in data set [1] was 1. The same molecule returned a CvA in data set [3] of 1.

As for `COc1ccc([C@@H]2Sc3ccccc3N(CCN(C(C)C)C(C)C)C(=O)[C@@H]2OC(C)=O)cc1.Cl` [d-cis-ML1016], the AcA in data set [1] worked out at 5. In data set [3], this molecule gave a CvA of 2. In data set [2], this molecule came in with an AdA of 1.

With `COc1ccc([C@@H]2Sc3ccccc3N(CCN(C)C)C(=O)[C@@H]2OC(C)=O)cc1` [diltiazem hydrochloride, Diltiazem hydrochloride], the “increase in vincristine (VCR) cytotoxicity” value in data set [4] is recorded as 54 fold.

Take `COc1ccc([C@H]2Sc3ccccc3N(CCN(C)C)C(=O)[C@H]2OC(C)=O)cc1` [l-cis-DTZ]: the AcA in data set [1] came to 3.

The record behind these values is EP0433683A2, “Use of benzothiazepines as potentiators of anti-cancer drugs” (MARION MERRELL DOW INC., priority 1989, dated 1991).
